Test systems include HL-60(TB) leukemia; PC-3 prostate; NCI/ADR-RES ovarian; CAKI-1 renal; SR leukemia; DU-145 prostate; TK-10 renal; SF-539 CNS; MDA-MB-435; RXF 393 renal.
What all share (assay): NCI anticancer screen, dose series, 48 h

Among the data in PubChem BioAssay (NCI) are TGI values, retold here.

Molecules are shown by their SMILES.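 Cultured in 96-well plates, cells were exposed to test compound for 48 hours across five concentrations. TGI is the concentration that stops growth completely.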

In the case of `O=C(O)CCCN=C(C1=C(O)C(=O)N(c2ccccc2)C1=O)c1ccccc1`, the TGI with HL-60(TB) leukemia is > 100 µM; in the experiment on PC-3 prostate it was > 100 µM; in the experiment with NCI/ADR-RES ovarian, > 100 µM; in the experiment with CAKI-1 renal it was > 100 µM; in the experiment with SR leukemia, 64.9 µM; with DU-145 prostate, > 100 µM. Further, the TGI in the experiment with TK-10 renal, in the experiment with SF-539 CNS, in the experiment on MDA-MB-435 and with RXF 393 renal was > 100 µM in each case.

Take `N=C(N)c1ccc(N=Nc2c(O)ccc3cc4c(N=Nc5ccc(C(=N)N)cc5)c(O)ccc4cc23)cc1`: the TGI was 84.6 µM with HL-60(TB) leukemia; > 100 µM in the experiment on PC-3 prostate; > 100 µM in the experiment on NCI/ADR-RES ovarian; > 100 µM in the experiment with CAKI-1 renal; > 100 µM in the experiment with SR leukemia; > 100 µM in the experiment on DU-145 prostate. The TGI in the experiment with TK-10 renal, with SF-539 CNS, in the experiment with MDA-MB-435 and in the experiment with RXF 393 renal was > 100 µM each time.

As for `Cn1c(=O)ccc2c(=O)c3ccccc3oc21`, the TGI in the experiment on HL-60(TB) leukemia, with PC-3 prostate, in the experiment on NCI/ADR-RES ovarian, in the experiment on CAKI-1 renal, in the experiment on SR leukemia and in the experiment on DU-145 prostate was > 100 µM each time. Moreover, the TGI in the experiment on TK-10 renal, with SF-539 CNS, with MDA-MB-435 and in the experiment on RXF 393 renal was > 100 µM throughout.

On to `O=c1c(-c2ccccc2)c(SCCN2CCOCC2)n(-c2ccccc2)c(=S)n1-c1ccccc1`, for which the TGI in the experiment with HL-60(TB) leukemia, in the experiment with PC-3 prostate, in the experiment with NCI/ADR-RES ovarian, in the experiment on CAKI-1 renal, in the experiment with SR leukemia and with DU-145 prostate was > 100 µM throughout. Further, the TGI with TK-10 renal, with SF-539 CNS, in the experiment with MDA-MB-435 and with RXF 393 renal was > 100 µM throughout.

As to `Cc1cc(=O)n2c3c(c4c(cc13)c(CN(C)C)cc(=O)n4C)OC2`, the TGI with HL-60(TB) leukemia was > 100 µM; in the experiment with PC-3 prostate it was > 59.2 µM; with NCI/ADR-RES ovarian, > 76.9 µM; in the experiment on CAKI-1 renal it was 97 µM; in the experiment with SR leukemia, > 100 µM; in the experiment on DU-145 prostate, > 75.9 µM. Moreover, the TGI is > 88.6 µM with TK-10 renal, 24.2 µM in the experiment with SF-539 CNS, > 58.2 µM with MDA-MB-435 and 28.7 µM in the experiment with RXF 393 renal.
